Experimental data taken from US6355799B1, “Substituted benzene compounds, process for their preparation, and herbicidal and defoliant compositions containing them” (ISK Americas Incorporated, priority 1997, dated 2002).

Tests used:
Assay type in all cases: in vivo
[1] = system: barnyardgrass (Echinochloa crus-galli, ECHCG); assay: Pre-emerge test, greenhouse herbicide activity screening; conditions: pre-emerge, rated 14 days after application, 0 = no damage, 100 = complete death
In short: (§1)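 Sandy loam pots; pre-emerge: sown 1 d pre-spray, surface-watered after, then bottom-watered. Post-emerge: sown 8–21 d before, 2–3 leaf stage, + 0.25% v/v NIS, bottom-watered. Acetone, 187 l/ha track spray, 15–1000 g ai/ha. 0–100 injury score, day 14.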

[2] = system: green foxtail (Setaria viridis, SETVI); assay: as above; conditions: pre-emerge, rated 14 days after application, 0 = no damage, 100 = complete death
In short: as §1

[3] = system: sicklepod (Cassia obtusifolia, CASOB); assay: as above; conditions: pre-emerge, rated 14 days after application, 0 = no damage, 100 = complete death
In short: as §1

[4] = system: velvetleaf (Abutilon theophrasti, ABUTH); assay: as above; conditions: pre-emerge, rated 14 days after application, 0 = no damage, 100 = complete death
In short: as §1

[5] = system: johnsongrass (Sorghum halepense, SORHA); assay: as above; conditions: pre-emerge, rated 14 days after application, 0 = no damage, 100 = complete death
In short: as §1

[6] = system: common ragweed (Ambrosia artemisizfolia L., AMBEL); assay: as above; conditions: pre-emerge, rated 14 days after application, 0 = no damage, 100 = complete death
In short: as §1

[7] = system: lambsquarters (Chenopodium album, CHEAL); assay: as above; conditions: pre-emerge, rated 14 days after application, 0 = no damage, 100 = complete death
In short: as §1

[8] = system: large crabgrass (Digitaria sanguinalis, DIGSA); assay: as above; conditions: pre-emerge, rated 14 days after application, 0 = no damage, 100 = complete death
In short: as §1

[9] = system: ivyleaf morningglory (Ipomoea hederacea, IPOHE); assay: as above; conditions: pre-emerge, rated 14 days after application, 0 = no damage, 100 = complete death
In short: as §1

[10] = system: upland rice (Oryza sp., var. Tebonnet, RICE); assay: Post-emerge test, crop safety; conditions: phytotoxicity rating 0-100 (0 no damage, 100 complete death), 14 days after application
In short: as §1

[11] = system: field corn (Zea mays L., var. Dekalb 535, CORN); assay: Post-emerge test, crop safety; conditions: phytotoxicity rating 0-100 (0 no damage, 100 complete death), 14 days after application
In short: as §1

[12] = system: upland rice (Oryza sp., var. Tebonnet, RICE); assay: Pre-emerge test, crop safety; conditions: pre-emerge, rated 14 days after application, 0 = no damage, 100 = complete death
In short: (§2)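 Fourteen days after spraying, crop and weed injury was graded visually from 0, no effect, to 100, every plant dead. Test substances were dissolved in acetone and applied at 15–1000 g ai/ha with a flat-fan nozzle. Application was either pre-emergence, one day after sowing, or post-emergence at the 2–3 leaf stage.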

[13] = system: field corn (Zea mays L., var. Dekalb 535, CORN); assay: Pre-emerge test, crop safety; conditions: pre-emerge, rated 14 days after application, 0 = no damage, 100 = complete death
In short: as §2

[14] = system: barnyardgrass (Echinochloa crus-galli, ECHCG); assay: Post-emerge test, greenhouse herbicide activity screening; conditions: phytotoxicity rating 0-100 (0 no damage, 100 complete death), 14 days after application
In short: (§3)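 Herbicidal damage is scored 0 (none) to 100 (complete plant death) two weeks after a simulated field spray. Rates span 15–1000 g ai/ha, delivered in acetone at 187 l/ha. For post-emergence treatments, plants have 2–3 leaves and the spray carries 0.25% v/v non-ionic surfactant.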

[15] = system: green foxtail (Setaria viridis, SETVI); assay: as above; conditions: phytotoxicity rating 0-100 (0 no damage, 100 complete death), 14 days after application
In short: as §3

[16] = system: sicklepod (Cassia obtusifolia, CASOB); assay: as above; conditions: phytotoxicity rating 0-100 (0 no damage, 100 complete death), 14 days after application
In short: as §3

[17] = system: velvetleaf (Abutilon theophrasti, ABUTH); assay: as above; conditions: phytotoxicity rating 0-100 (0 no damage, 100 complete death), 14 days after application
In short: as §3

[18] = system: johnsongrass (Sorghum halepense, SORHA); assay: as above; conditions: phytotoxicity rating 0-100 (0 no damage, 100 complete death), 14 days after application
In short: as §3

[19] = system: common ragweed (Ambrosia artemisizfolia L., AMBEL); assay: as above; conditions: phytotoxicity rating 0-100 (0 no damage, 100 complete death), 14 days after application
In short: as §3

[20] = system: lambsquarters (Chenopodium album, CHEAL); assay: as above; conditions: phytotoxicity rating 0-100 (0 no damage, 100 complete death), 14 days after application
In short: as §3

[21] = system: redroot pigweed (Amaranthus retroflexus, AMARE); assay: as above; conditions: phytotoxicity rating 0-100 (0 no damage, 100 complete death), 14 days after application
In short: as §3

[22] = system: large crabgrass (Digitaria sanguinalis, DIGSA); assay: as above; conditions: phytotoxicity rating 0-100 (0 no damage, 100 complete death), 14 days after application
In short: as §3

[23] = system: ivyleaf morningglory (Ipomoea hederacea, IPOHE); assay: as above; conditions: phytotoxicity rating 0-100 (0 no damage, 100 complete death), 14 days after application
In short: as §3

[24] = system: redroot pigweed (Amaranthus retroflexus, AMARE); assay: Pre-emerge test, greenhouse herbicide activity screening; conditions: pre-emerge, rated 14 days after application, 0 = no damage, 100 = complete death
In short: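 Plants grown in 10 cm pots of sandy loam mix received acetone-dissolved compounds through a moving flat-fan nozzle. Doses ranged from 15 to 1000 g ai/ha. Pre-emerge pots were seeded one day earlier, post-emerge pots 8–21 days earlier. Fourteen days on, each pot was graded 0–100 for damage.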

`COc1c(Cl)cc(F)c(-n2c(=O)c(N)c(C(F)(F)F)n(C)c2=O)c1N` [Compound 1-10] was tested. Which “Pre-emerge Herbicidal Activity ECHCG (phytotoxicity rating, scale 0-100)” value ([1]; 63 g ai/ha) did it give?
The value was 0.

And the “Pre-emerge Herbicidal Activity ECHCG (phytotoxicity rating, scale 0-100)” value ([1]; 250 g ai/ha)?
The value was 0.

And the “Pre-emerge Herbicidal Activity SETVI (phytotoxicity rating, scale 0-100)” value ([2]; 63 g ai/ha)?
Its value is 0.

What about the “Pre-emerge Herbicidal Activity SETVI (phytotoxicity rating, scale 0-100)” value ([2]; 250 g ai/ha) of the same compound?
Its value is 100.

What about the “Pre-emerge Herbicidal Activity CASOB (phytotoxicity rating, scale 0-100)” value ([3]; 63 g ai/ha) of the same compound?
The value was 20.

What about the “Pre-emerge Herbicidal Activity CASOB (phytotoxicity rating, scale 0-100)” value ([3]; 250 g ai/ha) of the same compound?
Its value is 50.

What about the “Pre-emerge Herbicidal Activity ABUTH (phytotoxicity rating, scale 0-100)” value ([4]; 63 g ai/ha) of the same compound?
The value was 100.

And the “Pre-emerge Herbicidal Activity ABUTH (phytotoxicity rating, scale 0-100)” value ([4]; 250 g ai/ha)?
The value was 100.

And the “Pre-emerge Herbicidal Activity SORHA (phytotoxicity rating, scale 0-100)” value ([5]; 63 g ai/ha)?
The value was 0.

What about the “Pre-emerge Herbicidal Activity SORHA (phytotoxicity rating, scale 0-100)” value ([5]; 250 g ai/ha) of the same compound?
The value was 0.

And the “Pre-emerge Herbicidal Activity AMBEL (phytotoxicity rating, scale 0-100)” value ([6]; 63 g ai/ha)?
The value was 0.

What about the “Pre-emerge Herbicidal Activity AMBEL (phytotoxicity rating, scale 0-100)” value ([6]; 250 g ai/ha) of the same compound?
Its value is 60.

What about the “Pre-emerge Herbicidal Activity CHEAL (phytotoxicity rating, scale 0-100)” value ([7]; 63 g ai/ha) of the same compound?
The value was 30.

And the “Pre-emerge Herbicidal Activity CHEAL (phytotoxicity rating, scale 0-100)” value ([7]; 250 g ai/ha)?
The value was 100.

What about the “Pre-emerge Herbicidal Activity DIGSA (phytotoxicity rating, scale 0-100)” value ([8]; 63 g ai/ha) of the same compound?
Its value is 0.

And the “Pre-emerge Herbicidal Activity DIGSA (phytotoxicity rating, scale 0-100)” value ([8]; 250 g ai/ha)?
The value was 30.

And the “Pre-emerge Herbicidal Activity IPOHE (phytotoxicity rating, scale 0-100)” value ([9]; 63 g ai/ha)?
The value was 0.

What about the “Pre-emerge Herbicidal Activity IPOHE (phytotoxicity rating, scale 0-100)” value ([9]; 250 g ai/ha) of the same compound?
The value was 60.

What about the “Post-emerge Herbicidal Activity RICE (crop damage)” value ([10]; 63 g ai/ha) of the same compound?
Its value is 0.

And the “Post-emerge Herbicidal Activity RICE (crop damage)” value ([10]; 250 g ai/ha)?
Its value is 0.

What about the “Post-emerge Herbicidal Activity CORN (crop damage)” value ([11]; 63 g ai/ha) of the same compound?
Its value is 0.

What about the “Post-emerge Herbicidal Activity CORN (crop damage)” value ([11]; 250 g ai/ha) of the same compound?
The value was 0.

What about the “Pre-emerge crop damage RICE (phytotoxicity rating, scale 0-100)” value ([12]; 63 g ai/ha) of the same compound?
The value was 0.

And the “Pre-emerge crop damage RICE (phytotoxicity rating, scale 0-100)” value ([12]; 250 g ai/ha)?
Its value is 0.

And the “Pre-emerge crop damage CORN (phytotoxicity rating, scale 0-100)” value ([13]; 63 g ai/ha)?
The value was 0.

And the “Pre-emerge crop damage CORN (phytotoxicity rating, scale 0-100)” value ([13]; 250 g ai/ha)?
Its value is 0.

And the “Post-emerge Herbicidal Activity ECHCG” value ([14]; 63 g ai/ha)?
Its value is 0.

And the “Post-emerge Herbicidal Activity ECHCG” value ([14]; 250 g ai/ha)?
Its value is 0.

And the “Post-emerge Herbicidal Activity SETVI” value ([15]; 63 g ai/ha)?
Its value is 0.

And the “Post-emerge Herbicidal Activity SETVI” value ([15]; 250 g ai/ha)?
The value was 0.

What about the “Post-emerge Herbicidal Activity CASOB” value ([16]; 63 g ai/ha) of the same compound?
The value was 0.

What about the “Post-emerge Herbicidal Activity CASOB” value ([16]; 250 g ai/ha) of the same compound?
Its value is 10.

And the “Post-emerge Herbicidal Activity ABUTH” value ([17]; 63 g ai/ha)?
Its value is 30.

And the “Post-emerge Herbicidal Activity ABUTH” value ([17]; 250 g ai/ha)?
Its value is 90.

And the “Post-emerge Herbicidal Activity SORHA” value ([18]; 63 g ai/ha)?
Its value is 0.

And the “Post-emerge Herbicidal Activity SORHA” value ([18]; 250 g ai/ha)?
The value was 0.

And the “Post-emerge Herbicidal Activity AMBEL” value ([19]; 63 g ai/ha)?
Its value is 0.

And the “Post-emerge Herbicidal Activity AMBEL” value ([19]; 250 g ai/ha)?
The value was 30.

What about the “Post-emerge Herbicidal Activity CHEAL” value ([20]; 63 g ai/ha) of the same compound?
Its value is 10.

What about the “Post-emerge Herbicidal Activity CHEAL” value ([20]; 250 g ai/ha) of the same compound?
The value was 50.

What about the “Post-emerge Herbicidal Activity AMARE” value ([21]; 63 g ai/ha) of the same compound?
The value was 10.

And the “Post-emerge Herbicidal Activity AMARE” value ([21]; 250 g ai/ha)?
The value was 30.

What about the “Post-emerge Herbicidal Activity DIGSA” value ([22]; 63 g ai/ha) of the same compound?
Its value is 0.

What about the “Post-emerge Herbicidal Activity DIGSA” value ([22]; 250 g ai/ha) of the same compound?
Its value is 0.

What about the “Post-emerge Herbicidal Activity IPOHE” value ([23]; 63 g ai/ha) of the same compound?
The value was 20.

What about the “Post-emerge Herbicidal Activity IPOHE” value ([23]; 250 g ai/ha) of the same compound?
The value was 70.

And the “Pre-emerge Herbicidal Activity AMARE (phytotoxicity rating, scale 0-100)” value ([24]; 63 g ai/ha)?
Its value is 70.

What about the “Pre-emerge Herbicidal Activity AMARE (phytotoxicity rating, scale 0-100)” value ([24]; 250 g ai/ha) of the same compound?
Its value is 100.
